Usually IC50 stands for the concentration that inhibits the measured activity by half.

Values joined by “and” are separate entries in the source; they are usually repeats but may differ in a detail not shown here. Equal values may be shown once.

Data on 34 molecules can be found in patent publication US20050009840A1 (SUGEN, INC., priority 2003, published 2005).

The first test deals with T1, Met kinase domain (GST fusion protein) (Homo sapiens, UniProt P08581).
T1 construct: Purified GST fusion protein containing the Met kinase domain
T1 sequence (P08581 1078-1345 limits assumed): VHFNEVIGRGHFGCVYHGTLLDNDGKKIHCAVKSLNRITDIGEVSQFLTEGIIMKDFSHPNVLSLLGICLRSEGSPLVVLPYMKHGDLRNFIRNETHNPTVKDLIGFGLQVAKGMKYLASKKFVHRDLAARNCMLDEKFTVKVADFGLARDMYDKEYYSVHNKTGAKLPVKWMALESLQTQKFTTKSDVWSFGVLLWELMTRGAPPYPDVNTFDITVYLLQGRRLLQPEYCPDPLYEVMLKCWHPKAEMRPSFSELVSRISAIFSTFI
In words: Met transphosphorylation assay (ELISA, poly(glu-tyr) substrate).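 Also: Cell-free ELISA with plate-bound poly(Glu:Tyr 4:1) phosphorylated by GST-fused Met kinase domain plus ATP and Mn2+, phosphotyrosine detected by anti-phosphotyrosine antibody with HRP and ABTS read-out.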 The class given is biochemical. As to conditions: Table 2; read-out: Met IC50. For orientation: In an ELISA, binding on a coated surface is turned into a signal by an enzyme label.
Regarding `Nc1ncc(-c2ccc(C(=O)NCCCN3CCOCC3)cc2)cc1OCc1c(F)ccc(F)c1Cl` [Example I-224, 4-[6-Amino-5-(2-chloro-3,6-difluoro-benzyloxy)-pyridin-3-yl]-N-(3-morpholin-4-yl-propyl)-benzamide], the IC50 is 0.28 µM.
As for `Nc1ncc(-c2cccc(NS(=O)(=O)CCNC3CC3)c2)cc1OCc1c(F)ccc(F)c1Cl` [Example I-266, 2-Cyclopropylamino-ethanesulfonic acid {3-[6-amino-5-(2-chloro-3,6-difluoro-benzyloxy)-pyridin-3-yl]-phenyl}-amide], the IC50 is 0.9 µM.
On the same count and under the same terms, then `CC(Oc1cc(-c2ccc(C(=O)N3CC[C@H](N)C3)cc2)cnc1N)c1c(F)ccc(F)c1Cl` (stereo partly drawn) [Example I-341, (4-{6-Amino-5-[1-(2-chloro-3,6-difluoro-phenyl)-ethoxy]-pyridin-3-yl}-phenyl)-((S)-3-amino-pyrrolidin-1-yl)-methanone], with 0.075 µM; and `Nc1ncc(-c2ccc(C(=O)N3CC[C@H](N)C3)cc2)cc1OCc1c(F)ccc(F)c1Cl` [Example I-219, {4-[6-Amino-5-(2-chloro-3,6-difluoro-benzyloxy)-pyridin-3-yl]-phenyl}-[(3S)-3-amino-pyrrolidin-1-yl]-methanone], with 0.095 µM.
Still for that read-out and setting: the result for `Nc1ncc(-c2ccc(NS(=O)(=O)CCN3CCOCC3)cc2)cc1OCc1c(F)ccc(F)c1Cl` [Example I-247, 2-Morpholin-4-yl-ethanesulfonic acid {4-[6-amino-5-(2-chloro-3,6-difluoro-benzyloxy)-pyridin-3-yl]-phenyl}-amide] reads 0.31 µM; that for `CC(Oc1cc(-c2cccc(C(=O)N3CCC[C@@H]3CN3CCCC3)c2)cnc1N)c1c(Cl)ccc(F)c1Cl` (stereo partly drawn) [Example I-318, (3-{6-Amino-5-[1-(2,6-dichloro-3-fluoro-phenyl)-ethoxy]-pyridin-3-yl}-phenyl)-((R)-2-pyrrolidin-1-ylmethyl-pyrrolidin-1-yl)-methanone], 0.13 µM.
With `CC(Oc1cc(-c2ccc(C(=O)N3CC[C@@H](O)C3)cc2)cnc1N)c1c(Cl)ccc(F)c1Cl` (stereo partly drawn) [Example I-307, (4-{6-Amino-5-[1-(2,6-dichloro-3-fluoro-phenyl)-ethoxy]-pyridin-3-yl}-phenyl)-((R)-3-hydroxy-pyrrolidin-1-yl)-methanone], the IC50 is 0.022 µM.
For the molecule `CN(C)CCS(=O)(=O)Nc1cccc(-c2cnc(N)c(OCc3c(F)ccc(F)c3Cl)c2)c1` [Example I-259, 2-Dimethylamino-ethanesulfonic acid {3-[6-amino-5-(2-chloro-3,6-difluoro-benzyloxy)-pyridin-3-yl]-phenyl}-amide], the 50% inhibitory concentration (IC50) came out at 0.5 µM.
The same measure, in the same setting: the result for `Nc1ncc(-c2ccc(C(=O)O)cc2)cc1OCc1c(F)ccc(F)c1Cl` [Example I-211, 4 [6 Amino-5-(2-chloro-3,6-difluoro-benzyloxy)-pyridin-3-yl]-benzoic acid] reads 0.35 µM; that for `CC(Oc1cc(-c2ccc(C(=O)N3C[C@@H](C)N[C@@H](C)C3)cc2)cnc1N)c1c(F)ccc(F)c1Cl` (stereo partly drawn) [Example I-335, (4-{6 Amino-5-[1-(2-chloro-3,6-difluoro-phenyl)-ethoxy]-pyridin-3-yl}-phenyl)-((3R,5S)-3,5-dimethyl-piperazin-1-yl)-methanone], 0.09 µM.

Still in this test, the particulars now being: plain numbers in column Met IC50 (μM) of Table 2; read-out: Met IC50.
Consider `CC(Oc1cc(-c2ccc(NC(=O)NC3CCN(C)CC3)cc2)cnc1N)c1c(F)ccc(F)c1Cl` (stereo not shown) [Example I-378, 1-(4-{6-Amino-5-[1-(2-chloro-3,6-difluoro-phenyl)-ethoxy]-pyridin-3-yl}-phenyl)-3-(1-methyl-pipendin-4-yl)-urea], for which the IC50 was 0.038 µM.
In the case of `CC(Oc1cc(-c2ccc(NC(=O)NCCO)cc2)cnc1N)c1c(Cl)ccc(F)c1Cl` (stereo not shown) [Example I-373, 1-(4-{6-Amino-5-[1-(2,6-dichloro-3-fluoro-phenyl)-ethoxy]-pyridin-3-yl}-phenyl)-3-(2-hydroxy-ethyl)-urea], the IC50 was 0.064 µM.
Still for that read-out and setting: then `CC(Oc1cc(-c2cncc(C(=O)N3CCN(C)CC3)c2)cnc1N)c1c(F)ccc(F)c1Cl` (stereo not shown) [Example I-520, {6′-Amino-5′-[1-(2-chloro-3,6-difluoro-phenyl)-ethoxy]-[3,3′]bipyridinyl-5-yl}-(4-methyl-piperazin-1-yl)-methanone], with 0.134 µM; and `CC(Oc1cc(C#CCNC(=O)CN2CCCC2)cnc1N)c1c(Cl)ccc(F)c1Cl` (stereo not shown) [Example I-426, N-(3-{8-Amino-5-[1-(2,6-dichloro-3-fluoro-phenyl)-ethoxy]-pyridin-3-yl}-prop-2-ynyl)-2-pyrrolidin-1-yl-acetamide], with 0.0091 µM.
The same measure, in the same setting: then `CC(Oc1cc(-c2cccc(C(=O)N3CCC[C@H]3CN3CCCC3)c2)cnc1N)c1c(Cl)cccc1Cl` (stereo partly drawn) [Example I-391, (3-{6-Amino-5-[1-(2,6-dichloro-phenyl)-ethoxy]-pyridin-3-yl}-phenyl)-((S)-2-pyrrolidin-1-ylmethyl-pyrrolidin-1-yl)-methanone], with 0.098 µM; and `CC(Oc1cc(-c2ccc(NC(=O)NCCN3CCOCC3)cc2)cnc1N)c1c(Cl)ccc(F)c1Cl` (stereo not shown) [Example I-374, 1-(4-{6-Amino-5-[1-(2,6-dichloro-3-fluoro-phenyl)-ethoxy]-pyridin-3-yl}-phenyl)-3-(2-morpholin-4-yl-ethyl)-urea], with 0.062 µM.

Still in this test, the particulars now being: read-out: Met IC50.
For `CC(Oc1nc(-c2ccc(NC(=O)NCCO)cc2)cnc1N)c1c(Cl)ccc(F)c1Cl` (stereo not shown) [II-190, 1-(4-{5-Amino-6-[1-(2,6-dichloro-3-fluoro-phenyl)-ethoxy]-pyrazin-2-yl}-phenyl)-3-(2-hydroxy-ethyl)-urea], the IC50 was found to be 0.28 µM.
Take `Nc1ncc(-c2ccccc2OC(F)(F)F)cc1OCc1c(Cl)cccc1Cl` [Example I-29, 3-(2,6-Dichloro-benzyloxy)-5-(2-trifluoromethoxy-phenyl)-pyridin-2-ylamine]: the IC50 was above 20 µM.
Same read-out and setting: the result for `COc1ccc(-c2cnc(N)c(OCc3c(Cl)cccc3Cl)c2)cc1` [Example I-16, 3-(2,6-Dichloro-benzyloxy)-5-(4-methoxy-phenyl)-pyridin-2-ylamine] reads 6.55 µM.
Still for that read-out and setting: the result for `Nc1ncc(-c2ccc(O)cc2)cc1OCc1ccccc1` [Example I-86, 4-(6-Amino-5-benzyloxy-pyridin-3-yl)-phenol] reads 8.7 µM.
Same read-out and setting: then `CCN(CC)Cc1c[nH]c2ccc(-c3cnc(N)c(OCc4c(Cl)cccc4Cl)c3)cc12` [Example I-64, 3-(2,6-Dichloro-benzyloxy)-5-(3-diethylaminomethyl-1H-indol-5-yl)-pyridin-2-ylamine], with 3.23 µM.
With `CC(Oc1nc(-c2ccc(C(=O)O)cc2)cnc1N)c1c(Cl)ccc(F)c1Cl` (stereo not shown) [II-145, 4-{5-Amino-6-[1-(2,6-dichloro-3-fluoro-phenyl)-ethoxy)-pyrazin-2-yl)benzoic acid], the IC50 came out at 1.56 µM.
Still for that read-out and setting: the result for `CN1CCN(C(=O)c2ccc(-c3cnc(N)c(OCc4c(Cl)cccc4Cl)c3)cc2)CC1` [Example I-38, {4-[6-Amino-5-(2,6-dichloro-benzyloxy)-pyridin-3-yl]-phenyl}-(4-methyl-piperazin-1-yl)-methanone] reads 1.02 µM.
Same read-out and setting: then `Nc1ncc(-c2ccc(O)cc2)cc1OCc1ccc(Cl)cc1Cl` [Example I-130, 4-[6-Amino-5-(2,4-dichloro-benzyloxy)-pyridin-3-yl]-phenol], with 9 µM and > 20 µM; and `CC(Oc1nc(-c2cccc(C(=O)NC3CCN(C)CC3)c2)cnc1N)c1c(Cl)ccc(F)c1Cl` (stereo not shown) [II-132, 3-{5-Amino-6-[1-(2,6-dichloro-3-fluoro-phenyl)-ethoxy]-pyrazin-2-yl}-N-(1-methyl-piperidin-4-yl)-benzamide], with 0.13 µM; and `CC(=O)N1CCN(CCS(=O)(=O)Nc2ccc(-c3cnc(N)c(OCc4c(F)ccc(F)c4Cl)n3)cc2)CC1` [II-18, 2-(4-Acetyl-piperazin-1-yl)-ethanesulfonic acid {4-[5-amino-6-(2-chloro-3,6-difluoro-benzyloxy)-pyrazin-2-yl]-phenyl}-amide], with 1.5 µM.
For `CN(C)[C@H]1CCN(C(=O)c2ccc(-c3cnc(N)c(OCc4ccc(Cl)cc4Cl)c3)cc2)C1` [Example I-174, {4-[6-Amino-5-(2,4-dichloro-benzyloxy)-pyridin-3-yl]-phenyl}-[(3S)-3-dimethylamino-pyrrolidin-1-yl]-methanone], the IC50 is 0.8 µM.
The same measure, in the same setting: the result for `Nc1ncc(-c2ccc3[nH]c(C(=O)O)cc3c2)cc1OCc1c(Cl)cccc1Cl` [Example I-77, 5-[6-Amino-5-(2,6-dichloro-benzyloxy)-pyridin-3-yl]-1H-indole-2-carboxylic acid] reads 1.62 µM.
Same read-out and setting: then `Nc1ncc(-c2ccc3[nH]c(C(=O)NCC(O)CN4CCCC4)cc3c2)cc1OCc1c(Cl)cccc1Cl` (stereo not shown) [Example I-85, 5-[6-Amino-5-(2,6-dichloro-benzyloxy)-pyridin-3-yl]-1H-indole-2-carboxylic acid (2-hydroxy-3-pyrrolidin-1-yl-propyl)-amide], with 0.7 µM.
Still for that read-out and setting: then `Nc1ncc(-c2cccc3[nH]ccc23)cc1OCc1c(Cl)cccc1Cl` [Example I-4, 3-(2,6-Dichloro-benzyloxy)-5-(1H-indol-4-yl)-pyridin-2-ylamine], with 1.4 µM; and `Nc1ncc(-c2ccc(OCCN3CCOCC3)cc2)cc1OCc1csc2ccc(Cl)cc12` [Example I-110, 3-(5-Chloro-benzo[b]thiophen-3-ylmethoxy)-5-[4-(2-morpholin-4-yl-ethoxy)-phenyl]-pyridin-2-ylamine], with 2.4 µM.
Regarding `Nc1ncc(-c2ccc(C(=O)NCCN3CCCC3)cc2)nc1OCc1c(F)ccc(F)c1Cl` [II-35, 4-[5-Amino-6-(2-chloro-3,6-difluoro-benzyloxy)-pyrazin-2-yl]-N-(2-pyrrolidin-1-yl-ethyl)-benzamide], the IC50 came out at 0.13 µM.
On the same count and under the same terms, the result for `Nc1ncc(-c2cccc(C(=O)NCCN3CCCC3)c2)nc1OCc1c(F)ccc(F)c1Cl` [II-55, 3-[5-Amino-6-(2-chloro-3,6-difluoro-benzyloxy)-pyrazin-2-yl]-N-(2-pyrrolidin-1-yl-ethyl)-benzamide] reads 1.6 µM; that for `CC(Oc1nc(-c2ccc(C(=O)NC3CCN(C)CC3)cc2)cnc1N)c1c(Cl)cccc1Cl` (stereo not shown) [II-160, 4-{5-Amino-6-[1-(2,6-dichloro-phenyl)-ethoxy]-pyrazin-2-yl}-N-(1-methyl-piperidin-4-yl)-benzamide], 0.12 µM.
